Test results as given in PMC3467072 (Nucleic Acids Research, 2012).

Legend:
Format in all cases: binding, Mycobacterium tuberculosis
Rv3066 mutant N112A = system: Rv3066 mutant N112A
Rv3066 mutant W131A = system: Rv3066 mutant W131A
Rv3066 mutant W80A = system: Rv3066 mutant W80A

CC[n+]1c(-c2ccccc2)c2cc(N)ccc2c2ccc(N)cc21 [ethidium, ethidium bromide]
three to four times: Decrease of affinity for ethidium binding, N112A versus wild-type (Rv3066 mutant N112A) | Decrease of affinity for ethidium binding, W131A versus wild-type (Rv3066 mutant W131A) | Decrease of affinity for ethidium binding, W80A versus wild-type (Rv3066 mutant W80A)
